In patent US9193984B2, “Method for detecting interactions between two and more biological macromolecules” (Korea Basic Science Institute, priority 2008, dated 2015):

Biological target: T1, first construct (TMD-mRFP) in CHO-k1 cells (Homo sapiens, UniProt Q05655, K378R/Y313F)
T1 construct: expressed in transfected cells; host or cells: CHO-k1
Test: Translocation of first construct (TMD-mRFP) toward the cell membrane depending on PMA concentration
Type: cell-based, Cricetulus griseus
Text: In order to optimize the translocation characteristic of the translocation module, the first construct vector (pTMD-mRFP-C3) shown in FIG. 5 was used to determine the optimum concentration of PMA (phorbol-12-myristate-13-acetate), which was used as an external stimulation. Detailed experimental procedures were the same as in FIG. 5.
A cover slip containing the cells in which the first construct and second construct vectors had been introduced was fixed to a perfusion chamber and mounted on the object stage of a confocal laser fluorescence microscope (Carl Zeiss LSM510). Images of the construct vectors were taken before and after external stimulation (treatment with 1 μM PMA).
Translocation efficiency of the first construct using the pTMD-mRFP-C3 vector depending on the concentration of external stimulant PMA was measured as follows. The expression vector of the first construct was transformed into CHO-k1 cells and overexpressed. After 18 hours of culturing, PMA was treated at 1, 5, 10, 20, 40, 50, 80 and 100 nM and 1 and 5 μM.

T1 sequence (Q05655 whole entry Y313F/K378R): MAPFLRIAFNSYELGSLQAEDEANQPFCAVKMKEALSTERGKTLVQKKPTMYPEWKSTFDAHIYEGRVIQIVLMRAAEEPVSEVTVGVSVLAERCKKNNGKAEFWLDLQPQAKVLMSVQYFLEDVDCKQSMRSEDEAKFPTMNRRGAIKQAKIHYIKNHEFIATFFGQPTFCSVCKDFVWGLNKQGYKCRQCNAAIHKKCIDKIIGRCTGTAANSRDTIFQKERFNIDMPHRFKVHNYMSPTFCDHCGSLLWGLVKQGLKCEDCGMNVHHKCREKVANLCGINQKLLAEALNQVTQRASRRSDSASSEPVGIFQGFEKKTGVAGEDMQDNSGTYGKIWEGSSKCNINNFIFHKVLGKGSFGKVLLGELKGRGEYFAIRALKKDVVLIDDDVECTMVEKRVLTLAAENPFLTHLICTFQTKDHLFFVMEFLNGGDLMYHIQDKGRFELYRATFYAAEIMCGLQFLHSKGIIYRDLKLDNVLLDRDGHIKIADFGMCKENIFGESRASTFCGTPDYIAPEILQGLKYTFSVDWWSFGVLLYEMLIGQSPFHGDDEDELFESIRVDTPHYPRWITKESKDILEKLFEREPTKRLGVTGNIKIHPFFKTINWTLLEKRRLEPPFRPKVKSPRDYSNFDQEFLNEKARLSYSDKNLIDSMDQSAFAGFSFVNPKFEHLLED

With CCCCCCCCCCCCCC(=O)O[C@@H]1[C@@H](C)[C@@]2(O)[C@@H](C=C(CO)C[C@]3(O)C(=O)C(C)=C[C@@H]23)[C@@H]2C(C)(C)[C@]12OC(C)=O [PMA, phorbol-12-myristate-13-acetate] the “cells with translocation of first construct toward the cell membrane” value (PMA 50 nM, CHO-k1, 200 cells counted) was ≥ 90% and the “movement of red fluorescence toward the cell membrane” value (PMA 100 nM or higher) was “increased”.
